Where two headings read alike, the source gives them in different places.
What was measured:
[1] = system: mouse neuroblastoma cell strain Neuro-2A; assay: Anti-cancer cell activity evaluation (minimum inhibitory concentration with respect to cells); format: cell-based; details: MIC, 3 days
[2] = system: recombinant rabies virus 1088 strain expressing Gaussia Luciferase (GLuc) (1088/GLuc); format: cell-based
rabies virus = details: mouse, in vivo; cited from earlier work
[3] = compounds of formula XXIIB and formula XXIIF (continuation)
[4] = compounds of formula XXIIB and formula XXIIF

With `Cc1cccc(CNC(=O)[C@]23NC[C@@H]4C[C@H]2CN(CC(C)C)[C@H]3[C@@H]4CCCCc2ccccc2)c1` (relative stereo) [IB-937] the Anti-cancer cell activity ([1]; compounds of formula XXIB) was “c (c if greater than 20 µM and less than or equal to 40 µM)” and the IC50 ([2]; read-out: Anti-rabies activity) was < 5 µM.

In the case of `CC(C)CN1C[C@@H]2C[C@H]3CN[C@]2(C(=O)NCc2ccccc2)[C@@H]1[C@@H]3CCCCc1ccccc1` (relative stereo) [IB-939], the Anti-cancer cell activity ([1]; compounds of formula XXIB) is reported as “c (c if greater than 20 µM and less than or equal to 40 µM)” and the IC50 ([2]; read-out: Anti-rabies activity) is reported as < 5 µM.

In the case of `CC(C)CCN1C[C@@H]2C[C@H]3CN[C@]2(C(=O)NCc2cccc(F)c2)[C@@H]1[C@@H]3CCCc1ccccc1` (relative stereo) [IB-940], the Anti-cancer cell activity ([1]; compounds of formula XXIB) is reported as “c (c if greater than 20 µM and less than or equal to 40 µM)” and the IC50 ([2]; read-out: Anti-rabies activity) is reported as < 5 µM.

For `CC(C)CCN1C[C@H]2C[C@]3(C(=O)NCc4ccc(Cl)cc4)N=C[C@H]2[C@H]1[C@H]3Cc1ccccc1` (relative stereo) [IIF-326], the Anti-cancer cell activity [1, 3] was “b (b if greater than 10 µM and less than or equal to 20 µM)” and the IC50 ([2]; read-out: Anti-rabies activity) was < 5 µM.

In the case of `CC(C)CN1C[C@H]2C[C@]3(C(=O)NCc4ccc(Cl)cc4)N=C[C@H]2[C@H]1[C@H]3CCc1ccccc1` (relative stereo) [IIF-330], the Anti-cancer cell activity [1, 3] is reported as “c (c if greater than 20 µM and less than or equal to 40 µM)” and the IC50 ([2]; read-out: Anti-rabies activity) is reported as < 5 µM.

With `CC(C)CN1C[C@H]2C[C@]3(C(=O)NCc4cccc(Cl)c4)N=C[C@H]2[C@H]1[C@H]3CCc1ccccc1` (relative stereo) [IIF-331] the Anti-cancer cell activity [1, 3] was “c (c if greater than 20 µM and less than or equal to 40 µM)” and the IC50 ([2]; read-out: Anti-rabies activity) was < 5 µM.

In the case of `NC(=O)c1nc(F)c[nH]c1=O` [Compound T-705, Favipiravir], the IC50 ([2]; read-out: IC50) is given as 30 µM and the prophylactic effect (rabies virus) is given as “significant prophylactic effect was confirmed and not”.

In the case of `CC(C)CN1CC2CC3CNC2(C(=O)NCCc2ccccc2)C1C3CCc1ccccc1` (stereo not drawn) [IB-957], the Anti-cancer cell activity ([1]; compounds of formula XXIB) is reported as “c (c if greater than 20 µM and less than or equal to 40 µM)” and the IC50 ([2]; read-out: Anti-rabies activity) is reported as < 5 µM.

With `CC(C)CN1CC2CC3CNC2(C(=O)NCc2cccc4ccccc24)C1C3CCc1ccccc1` (stereo not drawn) [IB-958] the Anti-cancer cell activity ([1]; compounds of formula XXIB) was “b (b if greater than 10 µM and less than or equal to 20 µM)” and the IC50 ([2]; read-out: Anti-rabies activity) was < 5 µM.

In the case of `COc1cccc(CNC(=O)C23CC4CN(CC(C)C)C(C4CN2)C3CCCc2ccccc2)c1` (stereo not drawn) [IF-894], the Anti-cancer cell activity ([1]; compounds of formula XXIF) is reported as “c (c if greater than 20 µM and less than or equal to 40 µM)” and the IC50 ([2]; read-out: Anti-rabies activity) is reported as < 5 µM.

In the case of `CC(C)CN1CC2CC3(C(=O)NCc4cccc(Cl)c4)NCC2C1C3CCCCc1ccccc1` (stereo not drawn) [IF-895], the Anti-cancer cell activity ([1]; compounds of formula XXIF) is reported as “b (b if greater than 10 µM and less than or equal to 20 µM)” and the IC50 ([2]; read-out: Anti-rabies activity) is reported as < 5 µM.

In the case of `CC(C)CN1CC2CC3(C(=O)NCc4cccc(F)c4)NCC2C1C3CCCCc1ccccc1` (stereo not drawn) [IF-896], the Anti-cancer cell activity ([1]; compounds of formula XXIF) is reported as “b (b if greater than 10 µM and less than or equal to 20 µM)” and the IC50 ([2]; read-out: Anti-rabies activity) is reported as < 5 µM.

For `Cc1cccc(CNC(=O)C23CC4CN(CC(C)C)C(C4CN2)C3CCCCc2ccccc2)c1` (stereo not drawn) [IF-897], the Anti-cancer cell activity ([1]; compounds of formula XXIF) was “b (b if greater than 10 µM and less than or equal to 20 µM)” and the IC50 ([2]; read-out: Anti-rabies activity) was < 5 µM.

In the case of `CC(C)CN1CC2CC3(C(=O)NCc4ccccc4)NCC2C1C3CCCCc1ccccc1` (stereo not drawn) [IF-899], the Anti-cancer cell activity ([1]; compounds of formula XXIF) is reported as “c (c if greater than 20 µM and less than or equal to 40 µM)” and the IC50 ([2]; read-out: Anti-rabies activity) is reported as 5 to 10 µM.

In the case of `CC(C)CCN1CC2CC3(C(=O)NCc4cccc(F)c4)NCC2C1C3CCCc1ccccc1` (stereo not drawn) [IF-900], the Anti-cancer cell activity ([1]; compounds of formula XXIF) is reported as “c (c if greater than 20 µM and less than or equal to 40 µM)” and the IC50 ([2]; read-out: Anti-rabies activity) is reported as < 5 µM.

In the case of `CC(C)CN1CC2CC3C=NC2(C(=O)NCc2ccc(Cl)cc2)C1C3CCc1ccccc1` (stereo not drawn) [IIB-331], the Anti-cancer cell activity [1, 4] is reported as “c (c if greater than 20 µM and less than or equal to 40 µM)” and the IC50 ([2]; read-out: Anti-rabies activity) is reported as < 5 µM.

For `CC(C)CN1CC2CC3C=NC2(C(=O)NCc2cccc(Cl)c2)C1C3CCc1ccccc1` (stereo not drawn) [IIB-332], the Anti-cancer cell activity [1, 4] was “b (b if greater than 10 µM and less than or equal to 20 µM)” and the IC50 ([2]; read-out: Anti-rabies activity) was < 5 µM.

For `Cc1ccc(CNC(=O)C23N=CC4CC2CN(CC(C)C)C3C4CCc2ccccc2)cc1` (stereo not drawn) [IIB-334], the Anti-cancer cell activity [1, 4] was “c (c if greater than 20 µM and less than or equal to 40 µM)” and the IC50 ([2]; read-out: Anti-rabies activity) was < 5 µM.

With `CC(C)CN1CC2CC3C=NC2(C(=O)NCc2ccc4ccccc4c2)C1C3CCc1ccccc1` (stereo not drawn) [IIB-335] the Anti-cancer cell activity [1, 4] was “c (c if greater than 20 µM and less than or equal to 40 µM)” and the IC50 ([2]; read-out: Anti-rabies activity) was < 5 µM.

With `CC(C)CN1CC2CC3C=NC2(C(=O)NCc2ccccc2)C1C3CCCc1ccccc1` (stereo not drawn) [IIB-336] the Anti-cancer cell activity [1, 4] was “c (c if greater than 20 µM and less than or equal to 40 µM)” and the IC50 ([2]; read-out: Anti-rabies activity) was < 5 µM.

With `CC(C)CN1CC2CC3C=NC2(C(=O)NCc2cccc(Cl)c2)C1C3CCCc1ccccc1` (stereo not drawn) [IIB-337] the Anti-cancer cell activity [1, 4] was “c (c if greater than 20 µM and less than or equal to 40 µM)” and the IC50 ([2]; read-out: Anti-rabies activity) was < 5 µM.

For `CC(C)CN1CC2CC3C=NC2(C(=O)NCc2cccc(F)c2)C1C3CCCc1ccccc1` (stereo not drawn) [IIB-338], the Anti-cancer cell activity [1, 4] was “c (c if greater than 20 µM and less than or equal to 40 µM)” and the IC50 ([2]; read-out: Anti-rabies activity) was < 5 µM.

For `Cc1cccc(CNC(=O)C23N=CC4CC2CN(CC(C)C)C3C4CCCc2ccccc2)c1` (stereo not drawn) [IIB-340], the Anti-cancer cell activity [1, 4] was “c (c if greater than 20 µM and less than or equal to 40 µM)” and the IC50 ([2]; read-out: Anti-rabies activity) was < 5 µM.

With `COc1cccc(CNC(=O)C23N=CC4CC2CN(CC(C)C)C3C4CCCc2ccccc2)c1` (stereo not drawn) [IIB-341] the Anti-cancer cell activity [1, 4] was “c (c if greater than 20 µM and less than or equal to 40 µM)” and the IC50 ([2]; read-out: Anti-rabies activity) was < 5 µM.

For `CC(C)CN1CC2CC3C=NC2(C(=O)NCc2cccc(Cl)c2)C1C3CCCCc1ccccc1` (stereo not drawn) [IIB-342], the Anti-cancer cell activity [1, 4] was “b (b if greater than 10 µM and less than or equal to 20 µM)” and the IC50 ([2]; read-out: Anti-rabies activity) was 5 to 10 µM.

With `CC(C)CN1CC2CC3C=NC2(C(=O)NCc2cccc(F)c2)C1C3CCCCc1ccccc1` (stereo not drawn) [IIB-343] the Anti-cancer cell activity [1, 4] was “c (c if greater than 20 µM and less than or equal to 40 µM)” and the IC50 ([2]; read-out: Anti-rabies activity) was < 5 µM.

For `Cc1cccc(CNC(=O)C23N=CC4CC2CN(CC(C)C)C3C4CCCCc2ccccc2)c1` (stereo not drawn) [IIB-344], the Anti-cancer cell activity [1, 4] was “b (b if greater than 10 µM and less than or equal to 20 µM)” and the IC50 ([2]; read-out: Anti-rabies activity) was < 5 µM.

With `COc1cccc(CNC(=O)C23N=CC4CC2CN(CC(C)C)C3C4CCCCc2ccccc2)c1` (stereo not drawn) [IIB-345] the Anti-cancer cell activity [1, 4] was “c (c if greater than 20 µM and less than or equal to 40 µM)” and the IC50 ([2]; read-out: Anti-rabies activity) was < 5 µM.

With `CC(C)CN1CC2CC3C=NC2(C(=O)NCc2ccccc2)C1C3CCCCc1ccccc1` (stereo not drawn) [IIB-346] the Anti-cancer cell activity [1, 4] was “b (b if greater than 10 µM and less than or equal to 20 µM)” and the IC50 ([2]; read-out: Anti-rabies activity) was < 5 µM.

In the case of `CC(C)CCN1CC2CC3C=NC2(C(=O)NCc2cccc(F)c2)C1C3CCCc1ccccc1` (stereo not drawn) [IIB-347], the Anti-cancer cell activity [1, 4] is reported as “c (c if greater than 20 µM and less than or equal to 40 µM)” and the IC50 ([2]; read-out: Anti-rabies activity) is reported as < 5 µM.

— patent publication EP4104902B1, “COMPOUNDS AND M[…] SAME” (priority 2020, dated 2021)
